Where two headings read alike, the source gives them in different places.
How the values were obtained:
Assay type in all cases: cell-based
[1] = system: HUH7 (human hepatoma cell line); test: Cell death detection, trypan blue exclusion assay, HUH7, in combination with AZD-6244; details: HUH7, 6-day treatment; for Cell Death (%) in combination with AZD-6244: compound 0.5 μM
Description: (§1) Biological Test 2. Cell Death Detection Using Trypan Blue Exclusion Assay.
(§2) After drug treatment, cells were harvested by trypsinization with trypsin/EDTA for 10 min at 37° C. As some apoptotic cells detached from the culture substratum into the medium, these cells were also collected by centrifugation of the medium at 1,200 rpm for 5 min. The pooled cell pellets were resuspended and mixed with trypan blue dye. After Trypan blue stain was done, cells were counted by using a light microscope and a hemocytometer. Blue dye-incorporating cells were scored as being dead. Five hundred cells from randomly chosen fields were counted, and the number of dead cells was counted and expressed as a percentage of the total number of cells counted as shown in Tables 2 to 8 below.

[2] = system: HUH7 (human hepatoma cell line); test: Cell death detection, trypan blue exclusion assay, HUH7; details: Huh-7, 168 h, HUH7, 7-day treatment, read-out: Cell Death (%) at Tested Concentration
Description: as §1, §2

[3] = system: LNCaP (human prostate adenocarcinoma cell line); test: Cell death detection, trypan blue exclusion assay, LNCaP; details: read-out: Cell Death (%) at Tested Concentration
Description: as §1, §2

[4] = system: HT29 (human colon adenocarcinoma cell line); test: Cell death detection, trypan blue exclusion assay, HT29; details: HT29, 5-day treatment
Description: as §1, §2

[5] = system: Hep3B (human hepatoma cell line); test: Cell death detection, trypan blue exclusion assay, Hep3B; details: 5-day treatment
Description: as §1, §2

[6] = system: HepG2 (human Hepatocellular carcinoma cell line); test: Cell death detection, trypan blue exclusion assay, HepG2; details: HepG2, 5-day treatment
Description: as §1, §2

| SMILES | cytotoxicity at 1 µM [2] [%] | cytotoxicity at 2.5 µM [2] [%] | cytotoxicity at 5 µM [2] [%] | cytotoxicity at 7.5 µM [2] [%] | cytotoxicity at 10 µM [2] [%] | cytotoxicity at 1 µM ([3]; 72 h, 3-day treatment) [%] | cytotoxicity at 2.5 µM ([3]; 72 h, 3-day treatment) [%] | cytotoxicity at 5 µM ([3]; 72 h, 3-day treatment) [%] | cytotoxicity at 7.5 µM ([3]; 72 h, 3-day treatment) [%] | cytotoxicity at 10 µM ([3]; 72 h, 3-day treatment) [%] | cytotoxicity at 1 µM ([3]; 168 h, 7-day treatment) [%] | cytotoxicity at 2.5 µM ([3]; 168 h, 7-day treatment) [%] | cytotoxicity at 5 µM ([3]; 168 h, 7-day treatment) [%] | cytotoxicity at 7.5 µM ([3]; 168 h, 7-day treatment) [%] | cytotoxicity at 10 µM ([3]; 168 h, 7-day treatment) [%] | also measured |
| --- | --- | --- | --- | --- | --- | --- | --- | --- | --- | --- | --- | --- | --- | --- | --- | --- |
| Cn1cnc2c(F)c(Nc3ccc(Br)cc3Cl)c(C(=O)NOCCO)cc21 [AZD-6244, reference compound] | – | – | – | – | – | – | – | – | – | – | – | – | – | – | – | Cell Death (%), AZD-6244 alone ([1]; AZD-6244 0.5 μM, no other compound (0)): 2.3% |
| CNC(=O)c1cc(Oc2ccc(NC(=O)Nc3cc(S(F)(F)(F)(F)F)ccc3Cl)cc2)ccn1 [Example 5, 4-[4-({[2-chloro-5-(pentafluoro-λ^6-sulfanyl)phenyl]carbamoyl}amino)phenoxy]-N-methylpyridine-2-carboxamide] | 1.7 | 3.1 | 4.3 | 17.2 | 19.8 | 1 | 1.5 | 1.4 | 2.1 | 7.6 | 1.8 | 1.9 | 2.3 | 4.6 | 14.7 | – |
| CNC(=O)c1cc(Oc2ccc(NC(=O)Nc3cc(S(F)(F)(F)(F)F)ccc3Cl)c(F)c2)ccn1 [Example 6, 4-[4-({[2-chloro-5-(pentafluoro-λ^6-sulfanyl)phenyl]carbamoyl}amino)-3-fluorophenoxy]-N-methylpyridine-2-carboxamide] | 2 | 2.2 | 7.4 | 32.1 | 35.4 | 1.1 | 1.3 | 1.2 | 3.6 | 4.3 | 1.7 | 1.9 | 2.4 | 4.8 | 13.4 | Cell Death (%) at Tested Concentration ([4]; 2.5 uM): 11.7%; Cell Death (%) at Tested Concentration ([4]; 5.0 uM): 13.4%; Cell Death (%) at Tested Concentration ([4]; 10 uM): 22.1%; Cell Death (%) in combination with AZD-6244 ([1]; AZD-6244 0 μM): 2.1%; Cell Death (%) in combination with AZD-6244 ([1]; AZD-6244 0.5 μM): 99%; Cell Death (%) at Tested Concentration ([5]; 0.25 uM): 3.9%; Cell Death (%) at Tested Concentration ([5]; 3.0 uM): 38.4%; Cell Death (%) at Tested Concentration ([5]; 5.0 uM): 89.6%; Cell Death (%) at Tested Concentration ([6]; 0.25 uM): 2.6%; Cell Death (%) at Tested Concentration ([6]; 3.0 uM): 90.7%; Cell Death (%) at Tested Concentration ([6]; 5.0 uM): 99% |

— patent publication US8937088B2, “Ureas for the treatment and prevention of cancer” (Astar Biotech LLC, priority 2011, dated 2015)
